Earlier results in patent publication US12622900B2, “Methods and compositions for treating gastric ulcers” (LUODA PHARMA LIMITED, priority 2015, dated 2026).

What was measured:
gastric acid secretion = conditions: single intramuscular injection at 1 mg/kg bodyweight, omeprazole monohydrate dissolved in saline
gastric ulcers = conditions: traditional oral dosing

COc1ccc2nc([S+]([O-])Cc3ncc(C)c(OC)c3C)[nH]c2c1 (stereo not drawn) [omeprazole, 6-methoxy-2-[(4-methoxy-3,5-dimethylpyridin-2-yl)methanesulfinyl]-1H-1,3-benzodiazole]
Period for which the dose is effective (gastric acid; 1-2 g daily oral dose to horses): 12 to 24 h | Duration of adequate gastric acid suppression (gastric acid; oral omeprazole preparations in horses (Merritt et al)): 12 h | Duration of pentagastrin-stimulated acid suppression (gastric acid secretion): 12 h | Duration of reduced basal acid secretion (gastric acid secretion): around 23 hours | Gastric ulcers healed (gastric ulcers; in 28-35 days): 25% | Squamous ulcers that will heal (gastric ulcers; within a 28 day treatment period): 70-80%
